{"source": "paper PMC8910920", "about": "(International Journal of Molecular Sciences, 2022)", "key": {"[1]": {"assay": "In vitro metabolism in human liver microsomes", "type": "in vitro ADME"}, "[2]": {"tested_on": "CCI rats, cold hypersensitivity", "assay": "CCI model of neuropathic pain, cold sensitivity (acetone test)", "type": "in vivo, rat", "conditions": "for cold hypersensitivity in CCI rats: 30 min after injection", "protocol": "(§1) The CCI model of neuropathic pain allowed the evaluation of the effect RGM8-51 on cold, heat and mechanical sensitivity, as assayed by the acetone test, the Hargreaves test, and the automatized von Frey test, respectively. RGM8-51 was applied either locally (i.pl.; 10 µg) in the affected paw or systemically (intraperitoneally, i.p., 10 and 30 mg/kg) and the effect evaluated before (Baseline) and after CCI surgery. The nocifensive response after administration of RGM8-51 was compared with that of vehicle, while non-operated animals and the uninjured (contralateral) hind paw in CCI animals were used as controls.\n(§2) Adult male Sprague-Dawley rats (weighing 200–220 g/6–8 weeks old) were used in these experiments. All experimental procedures were conducted according to the animal welfare guidelines of the European Community (European Directive 2010/63/UE) to minimize animal suffering and were approved by Universidad Complutense de Madrid and Comunidad de Madrid ethical committees on animal experimentation (PROEX 207.8/21). […]\n(§3) For behavioral testing, rats were placed in individual methacrylate boxes with a wire mesh floor, and after a period of 15 min acclimatization, the cold, heat and mechanical sensitivity of the ipsilateral and contralateral paws was determined. Cold sensitivity was assessed with the acetone test. In total, 100 µL acetone were locally applied to the plantar surface of the hind paw and the duration of the subsequent nocifensive response (licking, brushing, and flinching of the paw) was determined during 60 s. Acetone application and assessment were repeated 2 times with a 5 min interval and the sum of the two values was recorded. Heat sensitivity was determined with the Hargreaves test, which uses infrared light as a heat source, with a Hargreaves apparatus (Serie 8, Model 336, IITC Life Science, Woodland Hills, CA USA). The light beam was directed to the plantar surface of the hind paw and the time from the beginning of irradiation to the appearance of first paw withdrawal movement was measured (paw withdrawal latency). […]"}, "[3]": {"tested_on": "CCI rats, heat hypersensitivity", "assay": "CCI model of neuropathic pain, heat sensitivity (Hargreaves test)", "type": "in vivo, rat", "protocol": "as §1, §2, §3"}}}
{"compound": "C[C@@H]1C(=O)N(C[C@H](Cc2ccccc2)N(Cc2ccccc2)Cc2ccccc2)[C@]1(Cc1ccccc1)C(=O)OC(C)(C)C", "note": "[RGM8-51, 4(S)-Benzyl-3S-methyl-4-(tert-butoxy)carbonyl-1-[(2′S-dibenzylamino-3′-phenyl)prop-1′-yl]-2-oxoazetidine]", "values": [{"measurement": "Metabolism Clint", "setting": "[1]", "value": 614, "unit": "µL/min/mg"}, {"measurement": "Metabolism t1/2", "setting": "[1]", "value": 11, "unit": "min"}, {"measurement": "microsomal CLint", "setting": "[1]; human, liver microsomes", "value": 614, "unit": "µL/min/mg"}, {"measurement": "half-life", "setting": "[1]; human, liver microsomes, read-out: Metabolism t1/2", "value": 11.3, "unit": "min"}, {"measurement": "cold hypersensitivity in CCI rats", "setting": "[2]; i.p. 10 and 30 mg/kg", "value": "inhibited it dose-dependently"}, {"measurement": "cold hypersensitivity in CCI rats", "setting": "[2]; i.pl. 10 µg", "value": "reduced cold hypersensitivity"}, {"measurement": "response to cold in non-operated animals (baseline) or contralateral uninjured paw", "setting": "[2]; i.pl. or i.p.", "value": "no effect was observed"}, {"measurement": "heat hypersensitivity in CCI rats", "setting": "[3]; i.p. 10 and 30 mg/kg, dose-dependently", "value": "effective in decreasing hypersensitivity to heat"}, {"measurement": "heat hypersensitivity in CCI rats", "setting": "[3]; i.pl. 10 µg", "value": "did not influence the animal response to heat"}, {"measurement": "heat perception in non-operated animals (baseline) or uninjured hind paw", "setting": "[3]; rat, in vivo", "value": "had no effect on heat perception"}]}
